Results on 88 molecules are retold here after a melting point compilation (Tetko et al.; mined from patent text by program, amines drawn as free bases though some values may be those of a salt).

Molecules are shown by their SMILES.

On to `COc1ccc2c(c1)S(=O)(=O)N=CN2CCF`, for which the melting point (in general, the temperature of the solid-liquid transition) fell in the range of 123 to 128 °C.

As to `CC(C)[C@@H]1OC(=O)N[C@@H]1C(=O)OCc1ccccc1`, the melting point lay within 99 to 101 °C.

Take `O=C(c1nc2ccc(O)cc2[nH]1)N1CCC(=Cc2ccc(Cl)cc2)CC1`: the melting point lay in the range of 88 to 89 °C.

Take `Fc1ccc(Cn2c(NC3CCN(CCn4c(=S)[nH]c5ccccc54)CC3)nc3ccccc32)cc1`: the melting point was 235 °C.

Molecule `CCOC(=O)C1=C(C)C2=C(CC1)SCCC2=O` displayed a melting point of 99 to 100 °C.

The molecule `O[C@H]1c2cc(OCc3ccc4ccccc4c3)ccc2OC[C@H]1Oc1cccnc1` (relative stereo) returned a melting point of 156 to 157 °C.

As for `Cc1cc(-c2cccc([N+](=O)[O-])c2)nnc1N(C)N`, the melting point lay within 173 to 174 °C.

Regarding `CC(=O)Nc1ccc2ccn(C3CCN(CCc4ccc(F)cc4)CC3)c2c1`, the melting point is 195 to 196 °C.

The molecule `Cc1ccc(C(=O)c2c(OCc3ccccc3)cc(C(=O)O)cc2[N+](=O)[O-])cc1` registered a melting point of 222 to 223 °C.

For the molecule `COCn1c(-c2nccs2)c(Cl)c2cccc([N+](=O)[O-])c21`, the melting point fell in the range of 106 to 107 °C.

The molecule `O=C(/C=C/c1cccc(S(=O)(=O)N2CCN(c3ncccn3)CC2)c1)NO` displayed a melting point of 200 °C.

Molecule `C#Cc1cc(Oc2cnc(N)nc2N)c(C#C)cc1OC` displayed a melting point of 163 to 164 °C.

With `Cc1ccc2nc(-c3ccccc3F)oc2n1`, the melting point fell in the range of 136 to 137 °C.

`CCOC(=O)c1ccc(NCCOc2cccc3ccccc23)cc1` had a melting point of 124 to 127 °C.

The molecule `Cn1cc(-c2nnn[nH]2)c(=O)c2ccccc21` registered a melting point of 306 °C.

`COC(=O)c1cnn2c(O)cc(C(F)(F)F)nc12` registered a melting point of 216 to 217 °C.

For the molecule `Cn1nc(CC2CC2)c2sc(Cc3cccc(C(F)(F)F)c3)c(O)c2c1=O`, the melting point was in the range of 92 to 93 °C.

Molecule `CCOC(=O)C=C(C)Nc1c[nH]nc1-c1ccc(Cl)cc1` displayed a melting point of 145 to 146 °C.

Regarding `CCCCOC(=O)COCCCNC(=O)[C@H](C)NC(=O)OCc1ccccc1`, the melting point is 54 to 55 °C.

For `O=C(O)c1ccc(NCCOc2ccc(F)cc2)cc1`, the melting point was in the range of 209 to 210 °C.

With `NS(=O)(=O)c1cc(C(=O)O)cc([N+](=O)[O-])c1Nc1ccc(Cl)cc1`, the melting point fell in the range of 241 to 243 °C.

Regarding `CC1COc2c(ccc(F)c2F)N1` (stereo not drawn), the melting point was determined as 51 °C.

`COc1cc(C(=O)NCCc2ccc(F)cc2)cnc1C(=O)O` displayed a melting point of 110 °C.

The molecule `COc1cc(OCC(O)CCl)cc2oc3ccccc3c(=O)c12` (stereo not drawn) returned a melting point of 107 °C.

`COc1cc2c(c(OC)c1OC)C[C@@H](N1CCN(C(=O)C=Cc3ccccc3)CC1)[C@@H]2O` (relative stereo): the melting point lay within 162 to 163 °C.

As for `CSc1ccc(-c2cc(-c3nc4ccccc4c(=O)n3-c3cccc(C)c3)sc2N2CCOCC2)cc1`, the melting point was in the range of 220 to 221 °C.

For the molecule `Cn1cc(S(C)=O)c(=O)c2ccc(Cl)cc21` (stereo not drawn), the melting point is 245 to 247 °C.

Regarding `C=C(N=[N+]=[N-])c1cn(COCCO)c(=O)[nH]c1=O`, the melting point lay in the range of 141 to 142 °C.

In the case of `CC(=O)OCC(=O)Nc1cccc([N+](=O)[O-])c1C#N`, the melting point is 157 to 158 °C.

`COC(=O)C1(Sc2cc(N=c3sc(=O)n4n3CCCC4)c(F)cc2Cl)CC1` came in with a melting point of 149 °C.

Molecule `Cc1nc(C(=O)Nc2ccc3[nH]cc(C4CCN(C)CC4)c3n2)c(C)s1` came in with a melting point of 125 to 126 °C.

Regarding `COc1cccc2cc(C)c(C)nc12`, the melting point was 138 to 139 °C.

Regarding `CCOC(=O)N1C=CC(c2c(-c3ccc(F)cc3)nc3c(C)c(C)c(Cl)nn23)C=N1` (stereo not drawn), the melting point is 159 to 161 °C.

As for `COC(=O)c1ccc(-c2nc(NCc3ccc4c(c3)OCO4)c3c4c(sc3n2)CCCC4)cc1`, the melting point was 198 °C.

Take `N#Cc1c(Cl)cccc1C(F)(F)F`: the melting point fell in the range of 45 to 47 °C.

`CSc1c(C)c(-c2cc(OS(=O)(=O)C(F)(F)F)c(Cl)cc2F)nn1C`: the melting point fell in the range of 54 to 56 °C.

`CC1(C)CC(S(=O)(=O)C(F)c2c(F)cccc2F)=NO1` (stereo not drawn): the melting point was 88 °C.

For `Cc1ccc(C2(c3ccc(C)cc3)CCN=C2NC(=O)c2cc(C)n[nH]2)cc1`, the melting point is 243 to 245 °C.

As for `O=S1(=O)c2ccccc2-c2[nH]nc(-c3ccccc3)c21`, the melting point was in the range of 266 to 268 °C.

As to `O=C(c1nc(-c2ccccc2)nc2ccccc12)N1CCCC1`, the melting point was 153 °C.

In turn, `CCOC(=O)c1sc2cc(OCc3cccnc3)ccc2c1Sc1ccccc1N(S(C)(=O)=O)S(C)(=O)=O` yielded a melting point of 165 to 167 °C.

Regarding `CC(=O)Oc1ccc(C(=O)Nc2cccc(OCc3cncc4ccccc34)c2)cc1C(C)(C)C`, the melting point lay within 83 to 86 °C.

In turn, `O=c1n(CCCCN2CCN(c3cccc(Cl)c3)CC2)nc2ccccn12` returned a melting point of 122 to 123 °C.

Take `Cc1nc(-c2ccccc2C(F)(F)F)c(CCC(=O)O)o1`: the melting point was in the range of 118 to 119 °C.

As for `CCOC(=O)c1cn(-c2nonc2C)c2cc(F)c(F)cc2c1=O`, the melting point fell in the range of 178 to 180 °C.

The molecule `COc1ccc(CCc2ccc(N)cc2)cc1OC` had a melting point of 115 to 116 °C.

For the molecule `O=C1CC(c2cccc(-n3ccnc3)c2)=Nc2cc(OCCO)c(-c3ccc(F)cc3)cc2N1`, the melting point turned out to be 225 °C.

`COc1c(F)c(F)cc2c(O)c(C(=O)NCc3ccc(Cl)cc3)cnc12` had a melting point of 248 to 251 °C.

Turning to `OCc1cccc2nc(N3CCCCC3)sc12`, the melting point was 107 to 108 °C.

Regarding `N#Cc1ccc(-c2nc(C(=O)Nc3nccs3)c(-c3ccc(F)cc3)[nH]2)cc1`, the melting point is more than 250 °C.

`CC(C)c1cc(-c2ccc(F)cc2)c(OCc2ccccc2)c(C(C)C)c1` had a melting point of 65 to 67 °C.

`N#Cc1c(N)ccc(C(=O)CBr)c1Cl` displayed a melting point of 180 to 207 °C.

`CC(=O)c1cn(-c2c(Cl)cc(OC(F)(F)F)cc2Cl)nc1C#N` showed a melting point of 106 to 107 °C.

On to `COC(=O)c1nc(-c2ccc(Cl)c(N(C)C)c2F)nc(N)c1C1CC1`, for which the melting point lay in the range of 156 to 158 °C.

`C(=C(c1ccccc1)N(c1ccccc1)c1ccccc1)c1cccc2ccccc12` returned a melting point of 170 to 172 °C.

For the molecule `CCCCc1oc2ccccc2c1-c1ccc(-c2ccc(O)cc2)cc1`, the melting point lay within 128 to 129 °C.

As for `CC(C)[C@H](NC(=O)OCc1ccccc1)C(=O)N[C@@H](Cc1ccccc1)[C@@H](O)[C@@H](O)[C@H](Cc1ccccc1)NC(=O)[C@@H](NC(=O)N1CCN(C)CC1)C(C)C`, the melting point fell in the range of 216 to 219 °C.

`COC(=O)c1c(Cl)cccc1S(N)(=O)=O` gave a melting point of 144 to 149 °C.

`CCCC[C@@H](NC(=O)[C@H](Cc1ccc(O)cc1)NC(=O)OC(C)(C)C)C(=O)NCC(=O)OCc1ccccc1` gave a melting point of 122 °C.

`N#Cc1ccccc1C=Cc1ccccc1C#N` displayed a melting point of 187 to 189 °C.

Consider `CCCc1nn(CC)c2c(=O)n(CCCOc3ccc(SC(C)(C)C(=O)O)cc3)c(C)nc12`, for which the melting point was in the range of 118 to 120 °C.

Molecule `CCc1nn(CC(N)=O)c(CC)c1Oc1cccc(C#N)c1` registered a melting point of 159 to 160 °C.

`CCCC(NS(=O)(=O)c1ccc(Cl)cc1)C(=S)Nc1ccc(CC(=O)OCC)cc1` (racemic) had a melting point of 121 to 123 °C.

`Cc1ccccc1NC(=O)C1Sc2ccccc2N(C)C1=O` (stereo not drawn) registered a melting point of 187 to 188 °C.

As to `COc1ccc(CN2CCc3cc(O)ccc3C2)cc1OC`, the melting point lay within 119 to 122 °C.

In turn, `COn1c(C(F)(F)F)nc2ncc(Cl)cc21` gave a melting point of 91 to 92 °C.

For the molecule `Clc1ncccc1-c1ccccc1`, the melting point turned out to be 48 °C.

In the case of `CCOc1cc(NC(=O)NS(=O)(=O)c2ccc(C)cc2)cc(OCC)n1`, the melting point was more than 270 °C.

With `Cc1c(-c2ccccc2)oc2c(C(=O)OCCN3CCOCC3)cc(Cl)cc2c1=O`, the melting point lay in the range of 68 to 73 °C.

Take `Cc1nnc2n1-c1sc(C#CCn3c(=O)n(C)c(=O)c4ccccc43)cc1C(c1ccccc1Cl)=NC2`: the melting point lay in the range of 167 to 170 °C.

The molecule `COc1ccc(-c2ccc(C(=N)NO)cc2)cc1-c1nc2cc(C(=N)NO)ccc2[nH]1` showed a melting point of more than 340 °C.

`COc1ccc(CNc2nc(N3CCn4ccnc4C3)ncc2C(=O)NCC2CN(C)CCO2)cc1Cl` (stereo not drawn) showed a melting point of 132 to 134 °C.

The molecule `O=C(CS(=O)(=O)Cc1ccccc1)CS(=O)(=O)C(c1ccc(Cl)cc1)c1ccc(Cl)cc1` registered a melting point of 72 to 90 °C.

Regarding `NC1CN(C(=O)Nc2ccc(C(F)(F)F)cc2)N=C1c1ccc(Cl)cc1` (stereo not drawn), the melting point was in the range of 144 to 146 °C.

`O=C(c1ccc(-c2ccccc2)cc1)C1CCN(CCc2c[nH]c3ccccc23)CC1` gave a melting point of 189 to 192 °C.

For the molecule `CCOCCCNC(=O)Nc1ccccc1CCc1cc(C(C)(C)C)c(O)c(C(C)(C)C)c1`, the melting point lay in the range of 136 to 137 °C.

Molecule `CC(C)c1c(C(=O)N[C@H](C)[C@](O)(Cn2cncn2)c2ccc(F)cc2F)cnn1-c1ccc(Cl)cc1` gave a melting point of 85 to 92 °C.

`N#CC1=Cc2cc(Br)ccc2OC1` displayed a melting point of 132 to 133 °C.

For `COc1ccc(Nc2ccc3c(n2)CC(C)(C)CC3=O)cc1`, the melting point fell in the range of 149 to 150 °C.

`c1ccc2cc(OCCCNC3CCCCC3)ccc2c1` yielded a melting point of 98 °C.

`CCOC(=O)C(CCCCOc1ccccc1)C(=O)O` (stereo not drawn) returned a melting point of 69 to 72 °C.

Consider `C=C(CC1(C)C(=O)c2ccc(Cl)cc2C1=O)c1cccc(Cl)n1` (stereo not drawn), for which the melting point was 72 to 73 °C.

In turn, `Cc1nc(C)c(Cc2cccs2)c(NCc2ccc(-c3ccccc3-c3nnn[nH]3)cc2)n1` showed a melting point of 262 to 263 °C.

`COC(=O)c1ccc(CBr)c(NC(=O)c2ccc(C(C)(C)C)cc2C(=O)OC(C)(C)C)c1` displayed a melting point of 135 °C.

The molecule `CCCn1c(CC)ccc1Cc1cccc(NC(N)=O)c1` gave a melting point of 59 to 61 °C.

Consider `O=[N+]([O-])c1ccc(S(=O)(=O)On2nnc3ccccc32)cc1`, for which the melting point was 120 to 122 °C.

`O=c1nc(Nc2ccc(Cl)cc2)sc2ncccc12` had a melting point of 278 to 279 °C.

On to `COc1cc(OC)c(-c2nc(NC(=O)c3cc4ccccc4[nH]3)sc2C)cc1Cl`, for which the melting point is 249 °C.
